Where two headings read alike, the source gives them in different places.
Key:
AChE = tested on: AChE; parameters: method as in PMID 17962731; conditions: AChE inhibition; cited from earlier work
[1] = target: T1, Human acetycholinesterase (hAChE) (Homo sapiens, UniProt P22303); assay: hAChE enzyme kinetics, Lineweaver-Burk and secondary plots; assay type: biochemical; conditions: for Vmax: hAChE in presence of inhibitor, without inhibitor 0.34 ± 0.01; for Inhibition type: hAChE, Lineweaver-Burk plots
T1 construct: purchased Sigma
Description: (§1) Human acetycholinesterase (hAChE) activities were determined with a slight modification of Ellman's colorimetric protocol. […] The bioactivity was determined by evaluating the hydrolysis rate of acetylthiocholine iodide (ATCI, 0.1 mM) with the final volume of 300 μL with a phosphate buffer of 180 μL of 100 mM, pH 7.3 and 2 mM DTNB 0.09U of hAChE (Sigma) were applied to this solution and pre-incubated for 45 min at room temperature. The 96-well microplate was read in a microplate reader (Ensight Multimode Reader, Perkin Elmer) at 412 nm after adding DTNB and ATCI. The enzyme kinetic parameters were determined by incubating the substrate at multiple concentrations with or without test inhibitor by double-reciprocal (Lineweaver- Burk) plots in 0.09U of hAChE. From the Lineweaver-Burk plots, the inhibition mechanisms were measured graphically. The kinetics were performed using a series of concentrations of 4a to 4e and substrate AChI at 412 nm. The quantitative datas were expressed as mean ± SD results from three independent experiments. GraphPad Prism version 6.01 (GraphPad Software Inc., San Diego, USA) was used for regression analysis to calculate the IC50 values and the enzyme kinetic parameters (Km, Vmax). The IC50 and enzyme kinetics values (Vmax and Km) were calculated by this formula IC50 Y = min + max-min/1+(X/EC50)^−Hillslops. . Vmax and Km Y = Vmax∗X/(Km + X).
(§2) An evaluation of the therapeutic potential in the treatment of AD of target compounds 4a, 4b, 4c, 4d and 4e were measured for AChE inhibitory activity using the Ellman method. To find the inhibitory effects, the test compounds were incubated with multiple concentrations of human AChE. […] These compounds were designed from the trans-tephrostachin. It was isolated and structuraly characterized from Tephrosia purpurea in our previous studies. To investigate the mechanism of trans-tephrostachin derivatives against AChE, kinetic studies were conducted for all compounds. Such plots presented a secondary plot of Km/Vmax versus test compound concentrations for the Km and Vmax. […] Compound 4a is a trans-tephrostachin which was isolated and structurally characterized previously.

[2] = target: T1, Human acetycholinesterase (hAChE); assay: hAChE inhibition assay, modified Ellman's colorimetric protocol; assay type: biochemical
Description: as §1, §2

[3] = human AChE, secondary plot of Km/Vmax versus compound concentration, read-out: Ki
[4] = human AChE, Ellman method, average of three sets of assays, read-out: IC50 Concentration

T1 sequence (P22303 32-614): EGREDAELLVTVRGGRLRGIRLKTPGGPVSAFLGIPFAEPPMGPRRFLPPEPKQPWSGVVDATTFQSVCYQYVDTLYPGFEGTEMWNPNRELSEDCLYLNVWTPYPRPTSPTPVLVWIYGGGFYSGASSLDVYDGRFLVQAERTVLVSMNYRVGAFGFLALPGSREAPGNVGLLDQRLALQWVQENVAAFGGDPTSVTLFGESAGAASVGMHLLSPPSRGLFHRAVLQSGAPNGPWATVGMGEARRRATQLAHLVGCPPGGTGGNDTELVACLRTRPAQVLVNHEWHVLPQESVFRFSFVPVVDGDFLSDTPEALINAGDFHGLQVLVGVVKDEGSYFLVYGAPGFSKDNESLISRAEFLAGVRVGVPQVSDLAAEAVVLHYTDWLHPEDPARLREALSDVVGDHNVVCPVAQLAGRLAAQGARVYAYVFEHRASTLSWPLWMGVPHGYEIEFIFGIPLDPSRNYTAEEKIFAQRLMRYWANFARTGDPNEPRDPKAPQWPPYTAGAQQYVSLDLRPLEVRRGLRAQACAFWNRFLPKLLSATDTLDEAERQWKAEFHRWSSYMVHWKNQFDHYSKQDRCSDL

SMILES | IC50 (AChE) | Vmax [1] | Inhibition type [1] | Ki [1, 3] | IC50 [2, 4] | Ki [1] | IC50 [2]
COc1cc(OC)c2c(=O)cc(-c3ccccc3)oc2c1/C=C/C(C)(C)O [Compound 4a, (E)-8-(3-hydroxy-3-methylbut-1-en-1-yl)-5,7-dimethoxy-2-phenyl-4H-chromen-4-one] | – | 0.13 ± 0.08 | mixed type inhibition | 29.3 ± 7.2 µM | 35 ± 1.2 µM | – | –
O=C(/C=C/c1ccc(O)cc1)OC[C@H]1O[C@@H](Oc2c(-c3ccc(O)cc3)oc3cc(O)cc(O)c3c2=O)[C@H](O)[C@@H](O)[C@@H]1O [tiliroside] | 23.5 µM | – | – | – | – | – | –
C[C@@H]1O[C@@H](Oc2c(-c3ccc(O)c(O)c3)oc3cc(O)cc(O)c3c2=O)[C@H](O)[C@H](O)[C@H]1O [quercitrin] | 66.9 µM | – | – | – | – | – | –
CC(=O)Oc1cc(OC(C)=O)c2c(=O)cc(-c3ccccc3)oc2c1/C=C/C(C)(C)O [Compound 4e, (E)-8-(3-hydroxy-3-methylbut-1-en-1-yl)-4-oxo-2-phenyl-4H-chromene-5,7-diyl diacetate] | – | 0.36 ± 0.2 | Competitive inhibition | 198 ± 10.1 µM | 28.1 ± 2.1 µM | – | –
CC(C)(O)/C=C/c1c(OC(=O)c2ccccc2)cc(OC(=O)c2ccccc2)c2c(=O)cc(-c3ccccc3)oc12 [Compound 4c, (E)-8-(3-hydroxy-3-methylbut-1-en-1-yl)-4-oxo-2-phenyl-4H-chromene-5,7-diyl dibenzoate] | – | 0.14 ± 0.1 | mixed type inhibition | 46.4 ± 9.5 µM | 10.6 ± 2.8 µM | – | –
CC(C)(O)/C=C/c1c(OC(=O)c2ccc([N+](=O)[O-])cc2)cc(OC(=O)c2ccc([N+](=O)[O-])cc2)c2c(=O)cc(-c3ccccc3)oc12 [Compound 4d, (E)-8-(3-hydroxy-3-methylbut-1-en-1-yl)-4-oxo-2-phenyl-4H-chromene-5,7-diyl bis(4-nitrobenzoate)] | – | 0.15 ± 0.01 | mixed type inhibition | – | – | 8.25 ± 1.7 µM | 10.3 µM
CCOc1cc(OCC)c2c(=O)cc(-c3ccccc3)oc2c1/C=C/C(C)(C)O [Compound 4b, (E)-5,7-diethoxy-8-(3-hydroxy-3-methylbut-1-en-1-yl)-2-phenyl-4H-chromen-4-one] | – | 0.34 ± 0.01 | Competitive inhibition | 206 ± 12 µM | 35.6 ± 2.8 µM | – | –
C[n+]1c2n(c(=O)c3ccccc31)CCc1c-2[nH]c2ccccc12 [dehydroevodiamine] | 37.8 µM | – | – | – | – | – | –
